Measurements reported in PMC4490744, “Protective effect of a Protein Epitope Mimetic CCR10 antagonist, POL7085, in a model of allergic eosinophilic airway inflammation” (Respiratory Research, 2015).

Columns and labels:
[1] = system: OVA-sensitized and challenged Balb/c mice; experiment: Lung histology (haematoxylin-eosin), OVA model; type: in vivo, mouse; settings: POL7085 15 mg/kg or DEX 1 mg/kg i.n.
Protocol: Lung tissues were fixed in 4 % paraformaldehyde and paraffin-embedded. 6 μm sections were cut, mounted on Superfrost glass slides (Fischer Scientific) and stained with haematoxylin-eosin for light microscopy morphological analysis or periodic acid-Schiff (PAS) staining to determine the extent of mucus production. The area of epithelial cells containing the mucus were measured and expressed relative to the total bronchus perimeter.

[2] = system: OVA-sensitized and challenged Balb/c mice; experiment: Colorimetric assay of lung mucus, OVA model; type: in vivo, mouse
Protocol: Mucus was measured in lung homogenate by a mucus colorimetric assay: 100 μL samples were mixed with 20 μL acid mucus reagent (0.2 % periodic acid) incubated for 1 h at 37 °C, then 20 μL mucus dye reagent (pararosaniline 1 %, 10 N hydrochloric acid 1 %) was added and samples were incubated for a further 30 min at 37 °C, before optical density measurement at 555 nm.

[3] = system: OVA-sensitized and challenged Balb/c mice; experiment: BAL cytokines by ELISA, OVA model; type: in vivo, mouse; settings: 24 h after last challenge
Protocol: Bronchoalveolar lavage (BAL) was performed 24 h after the last OVA challenge as previously described. Mice were anaesthetized i.p. (ketamine 150 mg/kg, xylazine 10 mg/kg). A plastic cannula was inserted in the exposed trachea, and airways were washed with 0.5 mL of 0.9 % NaCl (saline) injected with a 1 mL syringe. This procedure was performed ten times. The initial concentrated supernatant of the two first lavages (2 × 0.5 mL administered, approx. 0.5 mL recovered) was collected for cytokine measurements. The remainder of the BALF was centrifuged (600 g for 5 min, 4 °C), and cell pellets pooled. After lysis of erythrocytes with distilled water followed by osmotic re-equilibration and centrifugation, the cell pellet was suspended in 500 μL of saline and total cell counted on a haemocytometer chamber (Neubauer, PRECISS®). […]
(§1) IL-5, IFN-γ (BD Pharmingen), CCL28 (R&D system) ELISA kits and Th17 Milliplex® (Millipore) were used according to the manufacturer’s instructions. For BALF recovered 24 h after the last OVA challenge, IL-5 and IFN-γ were quantified by ELISA. For lung homogenate, concentrations of IL-4, IL-5, IL-13, IL-17a and IL-17f were quantified by Milliplex® in the supernatants obtained after lung tissue was homogenised with an UltraTurax® and centrifuged at 10,000 g for 10 min at 4 °C.

[4] = system: OVA-sensitized and challenged Balb/c mice; experiment: Lung tissue CCL28 by ELISA, OVA model; type: in vivo, mouse; settings: POL7085 p < 0.05
Protocol: as §1

[5] = system: OVA-sensitized and challenged Balb/c mice; experiment: Plasma OVA-specific IgE by ELISA, OVA model; type: in vivo, mouse; settings: D22, ELISA
Protocol: Plasma IgE levels were determined by ELISA. Microtiter plates were coated overnight at 4 °C with the capture antibody, anti-mouse IgE at 2 μg/well in carbonate buffer, pH 9.5 (BD Pharmingen, clone R35-118).

[6] = system: OVA-sensitized and challenged Balb/c mice; experiment: Immunohistochemistry of CCR10 in the lung, OVA model; type: in vivo, mouse; settings: CCR10 immunolabelling
Protocol: Sections (3 μm) of lung tissue were cut, mounted, placed in Sequenza® immunostaining with Coverplate™ (Thermo Scientific Shandon), and antigen retrieval was performed with proteinase K in Tris-EDTA buffer (pH 8; Fluka) for 35 min at 37 °C. The endogenous enzyme was blocked with Dual Endogenous Enzyme Block (Dako Cytomation) and slides were incubated overnight at 4 °C with the primary antibody 1/1000 (goat anti-mouse CCR10 antibody; Capralogics), followed by 30 min at RT with the secondary rabbit anti-goat antibody (Vector) and 30 min at RT with extravidin peroxidase (Sigma-Aldrich).

[7] = system: OVA-sensitized and challenged Balb/c mice; experiment: BAL total and differential cell counts, OVA model; type: in vivo, mouse; settings: 24 h after last challenge, POL7085 15 mg/kg or DEX 1 mg/kg i.n. once daily 1 h before challenge, p < 0.001
Protocol: Bronchoalveolar lavage (BAL) was performed 24 h after the last OVA challenge as previously described. Mice were anaesthetized i.p. (ketamine 150 mg/kg, xylazine 10 mg/kg). A plastic cannula was inserted in the exposed trachea, and airways were washed with 0.5 mL of 0.9 % NaCl (saline) injected with a 1 mL syringe. This procedure was performed ten times. The initial concentrated supernatant of the two first lavages (2 × 0.5 mL administered, approx. 0.5 mL recovered) was collected for cytokine measurements. The remainder of the BALF was centrifuged (600 g for 5 min, 4 °C), and cell pellets pooled. After lysis of erythrocytes with distilled water followed by osmotic re-equilibration and centrifugation, the cell pellet was suspended in 500 μL of saline and total cell counted on a haemocytometer chamber (Neubauer, PRECISS®). Cells were cytocentrifuged at 700 rpm for 10 min (Cytospin 4, Thermo Fischer Scientific), and stained with Diff-Quick® (Merck) for differential cell counts performed on at least 400 cells.

[8] = system: OVA-sensitized and challenged Balb/c mice; experiment: Airway responsiveness to methacholine, whole body barometric plethysmography; type: in vivo, mouse; settings: DEX 1 mg/kg i.n., p < 0.001
Protocol: Airway responsiveness to aerosolized methacholine (MCh; Sigma-Aldrich, A2251) was measured in conscious mice on day 22 (24 h after the last OVA challenge) by whole body barometric plethysmography (Emka Technologies). Mice were acclimatized in the plethysmograph chamber for 30 min until a stable baseline was obtained, and then exposed to aerosolized saline for 30 s as a control. Mice were then challenged every 20 min with aerosolized MCh at increasing concentrations (0.05, 0.1, 0.2 and 0.3 M) for 30 s, and the enhanced pause (PenH) was recorded for 5 min and used as an index of airway obstruction.

[9] = system: OVA-sensitized and challenged Balb/c mice; experiment: Colorimetric assay of lung collagen, OVA model; settings: lung homogenate, POL7085 p < 0.05, DEX 1 mg/kg p < 0.001
[10] = system: OVA-sensitized and challenged Balb/c mice; experiment: Lung homogenate cytokines by Milliplex, OVA model; type: in vivo, mouse; settings: POL7085 7.5 and 15 mg/kg or DEX 1 mg/kg i.n.
Protocol: as §1

[11] = system: OVA-sensitized and challenged Balb/c mice; experiment: Lung CCR3 mRNA by RT-qPCR, OVA model; type: in vivo, mouse; settings: 2^ΔΔCt, not significant
Protocol: All procedures were performed according to the manufacturer’s instructions. Lung tissue was homogenised in a Fastprep®, and total RNA extracted with Tri-Reagent® (1 mL/left lung; Euromedex) and purified with mini RNeasy® Kit (Qiagen). RNA pellets were suspended in nuclease-free water (DEPC). RNA concentration and quality were determined in each preparation with a Nanodrop® spectrophotometer.
Reverse transcription was performed on 10 μg/mL of total RNA by the High Capacity cDNA Archive kit® (Life Technologies™) for 10 min at 25 °C and 2 h at 37 °C, and cDNAs were stored at −80 °C until use. Quantitative PCR was performed by real-time fluorescent PCR with TaqMan® Gene Expression Assay in 96 well plate format (Life Technologies™, ABI7000) using TaqMan® Gene Expression Assay primers (Life Technologies™ for HPRT1 (Mm01545399_m1), CCR10 (Mm01292449_m1), CCL28 (Mm00445039_m1) and CCR3 (Mm00515543_s1). To analyse the low expression of CCR10, CCL28 and CCR3, a preamplification was performed with TaqMan® PreAmp Master Mix (Life Technologies™) and TaqMan® Gene Expression Assay (10 min at 95 °C followed by 14 cycles: 15 s at 95 °C and 4 min at 60 °C). Preamplified cDNAs were stored at −80 °C until use and diluted 1/20 with 1X TE buffer for use. […]

With C[C@@H]1C[C@H]2[C@@H]3CCC4=CC(=O)C=C[C@]4(C)[C@@]3(F)[C@@H](O)C[C@]2(C)[C@@]1(O)C(=O)CO [DEX, dexamethasone] the “effect on peribronchial and perivascular inflammatory cell infiltrates in lung” value [1] was “substantial reduction of these cellular infiltrates”, the “effect on lung mucus (colorimetric assay, lung homogenate)” value [2] was “trend towards reduction of mucus levels (ns)” and the “effect on IL-5 level in BAL” value [3] was “significantly decreased”. The “effect on lung CCL28 concentration” value [4] was “had no effect on CCL28 levels”, the “effect on plasma OVA-specific IgE levels” value [5] was “a slight decrease, although non significant” and the “infiltrating inflammatory cells expressing CCR10” value [6] was “clearly reduced”. The “inhibition of BAL eosinophil recruitment” value [7] was 87%, the “inhibition of BAL lymphocyte recruitment” value [7] was 86% and the “inhibition of BAL neutrophil recruitment” value [7] was 90%. For the same molecule, the “effect on airway responses to MCh” value [8] was “significantly decreased airway responses to MCh”, the “reduction of lung collagen levels” value [9] was 64% and the “effect on levels of IL-4, IL-5 and IL-13 in lung homogenate” value [10] was “significantly decreased”. The “reduction of OVA-induced lung CCR3 mRNA expression” value [11] was 45%.
